According to paper PMC12029786 (2025):

How the values were obtained:
[1] = test system: 17-3minCP (RNA, aptamer) GGGCUUGUAGGAAGUAAAUGUGCAAAUCCGUAACUAGCUUCGGCUGAAUGAAGAGCAGUAGCGAGUAGUUCACAAGCCU; assay: fluorescence enhancement; conditions: 10 mM Mg2+; 40 mM Tris-Cl pH 7.5, 37 °C; 0.1 μM RNA, 0.1 μM DMHBI
[2] = test system: m1 mutant of 17-3min RNA (RNA, aptamer) GGGCUGUUUGAAGAGCAGUAGCGAGUAGAACACAAGCUUCGGCUUGUAGGAAGUAAAUGUGCAAAUCCGUAACUAGCCU; assay: fluorescence enhancement; conditions: 10 mM Mg2+; 40 mM Tris-Cl pH 7.5, 37 °C; 0.1 μM RNA, 0.1 μM DMHBI
[3] = test system: m3 mutant of Karashi RNA (RNA, aptamer) GGGCUGCCUGAAGAGCAGUAGCGAGUAGGGCACAAGCUUCGGCUUGUAGGAAGUAAAUGUGCAAAUCCGUAACUAGCCU; assay: fluorescence enhancement; conditions: 10 mM Mg2+; 40 mM Tris-Cl pH 7.5, 37 °C; 0.1 μM RNA, 0.1 μM DMHBI
[4] = test system: Karashi (17-3min RNA) (RNA, aptamer) GGGCUGAAUGAAGAGCAGUAGCGAGUAGUUCACAAGCUUCGGCUUGUAGGAAGUAAAUGUGCAAAUCCGUAACUAGCCU; assay: fluorescence enhancement; conditions: 10 mM Mg2+; 40 mM Tris-Cl pH 7.5, 37 °C; 0.1 μM RNA, 0.1 μM DMHBI
[5] = test system: Karashi A51G (RNA, aptamer) GGGCUGAAUGAAGAGCAGUAGCGAGUAGUUCACAAGCUUCGGCUUGUAGGGAGUAAAUGUGCAAAUCCGUAACUAGCCU; assay: fluorescence enhancement; conditions: 10 mM Mg2+; 40 mM Tris-Cl pH 7.5, 37 °C; 0.1 μM RNA, 0.1 μM DMHBI
[6] = test system: Jigarashi RNA (RNA, aptamer) GGUUUCCCCGAAGAGCAGUAGCGAGUAGGGGCCCAGCUUCGGCUGGGAGGAAGUAAAUGUGCAAAUCCGUAACUAAACU; assay: fluorescence enhancement; conditions: 10 mM Mg2+; 40 mM Tris-Cl pH 7.5, 37 °C; 0.1 μM RNA, 0.1 μM DMHBI
[7] = test system: Karashi G69A (RNA, aptamer) GGGCUGAAUGAAGAGCAGUAGCGAGUAGUUCACAAGCUUCGGCUUGUAGGAAGUAAAUGUGCAAAUCCAUAACUAGCCU; assay: fluorescence enhancement; conditions: 10 mM Mg2+; 40 mM Tris-Cl pH 7.5, 37 °C; 0.1 μM RNA, 0.1 μM DMHBI
[8] = test system: fr-1 RNA + fr-2 RNA (RNA, aptamer) GGUUUCCCCGAAGAGCAGUAGCGAGUAGGGGCCCAGCU/GGCUGGGAGGAAGUAAAUGUGCAAAUCCGUAACUAAACU; assay: fluorescence enhancement; conditions: 10 mM Mg2+; 40 mM Tris-Cl pH 7.5, 37 °C; 0.1 μM each RNA, 0.1 μM DMHBI
[9] = test system: 17-3 RNA (RNA, aptamer) GGGAGACGCAACUGAAUGAAGAGCAGUAGCGAGUAGUUCACAAGAGCUGCUUCGGCAGGAUCUUGUAGGAAGUAAAUGUGCAAAUCCGUAACUAGUCGCGUCAC; assay: fluorescence enhancement titration; conditions: 50 mM Mg2+; 40 mM Tris-Cl pH 7.5, 37 °C; 5 nM DMHBI titrated with RNA; Hill fit

binding [1]: yes | binding [2]: yes | binding [3]: yes | binding [4]: yes | binding [5]: yes | binding [6]: yes | binding [7]: yes | binding [8]: yes | Kd [9]: 43 nM
Compound: COc1cc(/C=C2\N=C(C)N(C)C2=O)cc(OC)c1O
